Laboratory results from patent publication US4451465A, “Anti-obesity agents” (John Wyeth & Brother Ltd., priority 1981, dated 1984).

Experiments:
rats [1] = test: signs of CNS arousal in rats; format: in vivo, rat; details: dosages as high as 30 mg/kg p.o.
From the text: (§1) It is also known that there is a good correlation between BAT homogenate Na^+, K^+ -ATPase activity and the resting metabolic rate (see, for example, Rothwell, Stock and Wyllie, Biochem. Pharmacol., 1981, 30, 1709-1712) and those compounds, such as the agents of the present invention that activate BAT Na^+ K^+ -ATPase activity are indicated as useful as thermogenic agents and can be used in the treatment of obesity.

[2] = tested on: BAT homogenate Na^+, K^+ -ATPase; test: stimulation of Na^+, K^+ -ATPase in BAT homogenate; format: biochemical, rat (adult male Sprague-Dawley); details: for IC50: homogenate, read-out: IC50 for stimulation (to 50% maximum) of BAT Na^+,K-ATP-ase, homogenate
Procedure: (§2) In one procedure for testing for potential thermogenic activity the compounds are tested for their ability to inhibit noradrenaline uptake in rat brown adipose tissue (BAT). Compounds that have a specific thermogenic effect without having undesirable central effects should inhibit BAT noradrenaline (NA) uptake at lower concentrations than those required to inhibit corresponding NA uptake in the brain. In another procedure for testing for thermogenic activity the compounds are investigated for their effect on the activity of sodium potassium activated, magnesium dependent adenosinetriphosphatase (Na^+, K^+ -ATPase) in rat BAT fractions.
(§3) In the above mentioned procedures adult male Sprague-Dawley rats were used. Homogenates of BAT were prepared by homogenising interscapular BAT. Microsomal material was separated by centrifugation of the BAT homogenate. Measurement of NA uptake into BAT and brain slices was carried out using radiolabelled noradrenaline (based upon the procedure of Sugden, Br. J. Pharmac., 1974,51, 467-469). Adenosinetriphosphate activities were measured by monitoring the release of inorganic phosphate from ATP. Na^+, K^+ -ATPase was calculated as the difference between total and sodium ATPase.

rats [3] = test: resting metabolic rate (resting oxygen consumption) in rats; format: in vivo, rat
From the text: as §1

[4] = tested on: BAT microsomal Na^+, K^+ -ATPase; test: stimulation of Na^+, K^+ -ATPase in BAT microsomal fraction; format: biochemical, rat (adult male Sprague-Dawley)
Procedure: as §2, §3

[5] = tested on: noradrenaline (NA) uptake in rat brown adipose tissue (BAT); test: inhibition of noradrenaline uptake in BAT; format: cell-based, rat (adult male Sprague-Dawley); details: for IC50: mean ± S.E. mean of 6 experiments, rat BAT
Procedure: In one procedure for testing for potential thermogenic activity the compounds are tested for their ability to inhibit noradrenaline uptake in rat brown adipose tissue (BAT). […] In another procedure for testing for thermogenic activity the compounds are investigated for their effect on the activity of sodium potassium activated, magnesium dependent adenosinetriphosphatase (Na^+, K^+ -ATPase) in rat BAT fractions.
In the above mentioned procedures adult male Sprague-Dawley rats were used. Homogenates of BAT were prepared by homogenising interscapular BAT. Microsomal material was separated by centrifugation of the BAT homogenate. […] Adenosinetriphosphate activities were measured by monitoring the release of inorganic phosphate from ATP. Na^+, K^+ -ATPase was calculated as the difference between total and sodium ATPase.

[6] = tested on: noradrenaline (NA) uptake into brain slices; test: inhibition of noradrenaline uptake in brain slices; format: cell-based, rat (adult male Sprague-Dawley); details: mean ± S.E. mean of 6 experiments; rat brain slices
Procedure: as §2, §3

brown adipose tissue = test: thermogenic activity (pharmacological testing); set-up: species or system rat; details: compared with corresponding (+)-enantiomers
Procedure: as §2, §3

male rats = test: chronic (28 day) administration to male rats: body weight and food intake; format: in vivo, rat; details: 28 days
From the text: The anti-obesity activity of (±)-2,3,4,10-tetrahydro-3,3-dimethyl-10-phenylpyrimido[1,2-a]indol-10-ol has been confirmed by chronic (28 day) administration to male rats. The animals were fed on a standard pelleted diet and the active agent was introduced into the water supply. Body weight, food and water intake and behaviour were monitored over the next four weeks.

Compound | signs of CNS arousal (rats [1]) | stimulation of homogenate Na^+, K^+ -ATPase ([2]; BAT homogenate) | resting metabolic rate (resting oxygen consumption) (rats [3]) | direct stimulation of BAT microsomal Na^+, K^+ -ATPase ([4]; BAT microsomal) | potency in inhibiting NA uptake into BAT versus brain slices ([5]; BAT compared with brain slices) | IC50 [2] | IC50 [6] | activity as thermogenic agents, (-) versus (+)-enantiomers (brown adipose tissue) | IC50 for stimulation (to 50% maximum) of BAT Na^+,K-ATP-ase, microsomal fraction [4] | IC50 [5] | weight gain compared to controls (male rats; 3.5 mg/kg/day in water supply) | weight gain compared to controls (male rats; 6.5 mg/kg/day in water supply) | body weight (male rats; 10.8 mg/kg/day in water supply) | food intake (male rats; 3.5, 6.5 and 10.8 mg/kg/day in water supply)
CC1(C)CN=C2N(C1)c1ccccc1C2(O)c1ccccc1 (stereo not drawn) [compound of the invention, 2,3,4,10-tetrahydro-3,3-dimethyl-10-phenylpyrimido[1,2-a]indol-10-ol] | did not produce signs of CNS arousal | significant stimulation | increases the resting metabolic rate | did not directly stimulate | considerably more potent in inhibiting NA uptake into BAT than into brain slices | – | – | – | – | – | – | – | – | –
CC1(C)CN=C2N(C1)c1ccccc1C2(O)c1ccccc1 (single isomer, unassigned; (-)) [(-), (-)-2,3,4,10-Tetrahydro-3,3-dimethyl-10-phenylpyrimido[1,2-a]indol-10-ol] | – | – | – | – | – | 32 nM | 2400 nM | more active, as thermogenic agents, than the corresponding (+)-enantiomers | none at 10^-4 | 18 nM | – | – | – | –
CC1(C)CN=C2N(C1)c1ccccc1C2(O)c1ccccc1 (racemic) [(±), (±)-2,3,4,10-tetrahydro-3,3-dimethyl-10-phenylpyrimido[1,2-a]indol-10-ol] | – | – | – | – | – | 43 nM | 3400 nM | – | none at 10^-4 | 28 nM | reduced weight gain | reduced weight gain | weight loss | no significant effect on food intake
